{"source": "ChEMBL document CHEMBL1275540", "about": "“Plasmid-mediated quinolone resistance determinants qnrA, qnrB, and qnrS among clinical isolates of Enterobacteriaceae in a Korean hospital” (2008)", "assay_type_in_all_cases": "functional", "key": {"Escherichia coli [1]": {"test_system": "Escherichia coli", "assay": "Antibacterial activity against rifampin resistant Escherichia coli RG488 receiving Klebsiella pneumoniae qnrB4 by agar dilution method"}, "Escherichia coli [2]": {"test_system": "Escherichia coli", "assay": "Antibacterial activity against rifampin resistant Escherichia coli RG488 receiving Klebsiella pneumoniae qnrS1 by agar dilution method"}, "Escherichia coli [3]": {"test_system": "Escherichia coli", "assay": "Antibacterial activity against Escherichia coli J53 by agar dilution method"}, "Escherichia coli [4]": {"test_system": "Escherichia coli", "assay": "Antibacterial activity against Escherichia coli RG488 by agar dilution method"}, "Escherichia coli [5]": {"test_system": "Escherichia coli", "assay": "Antibacterial activity against rifampin resistant Escherichia coli RG488 receiving Klebsiella pneumoniae qnrB6 by agar dilution method"}, "Escherichia coli [6]": {"test_system": "Escherichia coli", "assay": "Antibacterial activity against rifampin resistant Escherichia coli RG488 receiving Escherichia coli qnrB4 by agar dilution method"}, "Escherichia coli [7]": {"test_system": "Escherichia coli", "assay": "Antibacterial activity against rifampin resistant Escherichia coli RG488 receiving Enterobacter cloacae qnrB4 by agar dilution method"}}}
{"compound": "O=C(O)c1cn(C2CC2)c2cc(N3CCNCC3)c(F)cc2c1=O", "note": "[CIPROFLOXACIN]", "values": [{"measurement": "MIC90", "setting": "Escherichia coli [1]", "result": 0.125, "unit": "µg/mL"}, {"measurement": "MIC90", "setting": "Escherichia coli [2]", "result": 1, "unit": "µg/mL"}, {"measurement": "MIC90", "setting": "Escherichia coli [3]", "result": 0.015, "unit": "µg/mL"}, {"measurement": "MIC90", "setting": "Escherichia coli [4]", "result": 0.03, "unit": "µg/mL"}]}
{"compound": "CCn1cc(C(=O)O)c(=O)c2ccc(C)nc21", "note": "[NALIDIXIC ACID]", "values": [{"measurement": "MIC90", "setting": "Escherichia coli [1]", "result": 8, "unit": "µg/mL"}, {"measurement": "MIC90", "setting": "Escherichia coli [5]", "result": 16, "unit": "µg/mL"}, {"measurement": "MIC90", "setting": "Escherichia coli [2]", "result": 32, "unit": "µg/mL"}, {"measurement": "MIC90", "setting": "Escherichia coli [6]", "result": 16, "unit": "µg/mL"}, {"measurement": "MIC90", "setting": "Escherichia coli [7]", "result": 8, "unit": "µg/mL"}, {"measurement": "MIC90", "setting": "Escherichia coli [3]", "result": 4, "unit": "µg/mL"}, {"measurement": "MIC90", "setting": "Escherichia coli [4]", "result": 4, "unit": "µg/mL"}]}
